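Briefly, cells in 96-well plates were exposed to five compound concentrations for 48 h, and endpoints were estimated by linear interpolation. GI50 = concentration required for 50% inhibition of growth.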 Active and inactive are the calls of the source. Cut-off read from the data, not from the text of the source: active = GI50 up to about 1.1 µM and inactive = higher.
Assays:
Assay in all cases: DTP human tumour cell line panel, 48 h
COLO 205 = test system: COLO 205
EKVX = test system: EKVX
HCC 2998 = test system: HCC 2998
HL-60 = test system: HL-60
M14 = test system: M14
NCI-H226 = test system: NCI-H226
OVCAR-4 = test system: OVCAR-4
SF-539 = test system: SF-539
SK-OV-3 = test system: SK-OV-3
SNB-19 = test system: SNB-19
SR = test system: SR
U-251 = test system: U-251
UO-31 = test system: UO-31
A498 = test system: A498
OVCAR-5 = test system: OVCAR-5
MCF7 = test system: MCF7

Measured: GI50

COc1ccc2c(c1)CCc1c-2nc2cc3c(cc2c1O)OCO3
inactive: COLO 205 > 100 µM | EKVX > 100 µM | HCC 2998 > 100 µM | HL-60 > 100 µM | M14 > 100 µM | NCI-H226 > 100 µM | OVCAR-4 > 100 µM | SF-539 > 100 µM | SK-OV-3 > 100 µM | SNB-19 > 100 µM | SR > 100 µM | U-251 > 100 µM | UO-31 > 100 µM

COC(=O)CSc1nnc(-c2ccc(O)c([N+](=O)[O-])c2)[nH]1
inactive: A498 > 100 µM | EKVX > 100 µM | HCC 2998 > 100 µM | HL-60 > 100 µM | M14 > 100 µM | NCI-H226 > 100 µM | OVCAR-4 > 100 µM | OVCAR-5 > 100 µM | SF-539 > 100 µM | SNB-19 > 100 µM | SR > 100 µM | U-251 > 100 µM | UO-31 > 100 µM

CNS(=O)(=O)NNS(=O)(=O)c1ccc(Br)cc1
active: SNB-19 0.309 µM
inactive: A498 > 100 µM | COLO 205 > 100 µM | EKVX > 100 µM | HCC 2998 > 100 µM | HL-60 > 100 µM | M14 > 100 µM | NCI-H226 > 100 µM | OVCAR-4 > 100 µM | OVCAR-5 > 100 µM | SF-539 > 100 µM | SK-OV-3 > 100 µM | U-251 28.3 µM | UO-31 20.6 µM

O=C(NC12CC3CC(CC(C3)C1)C2)C(=O)c1c[nH]c2ccc(Br)cc12
inactive: COLO 205 18.6 µM | EKVX 73.1 µM | HCC 2998 22.6 µM | HL-60 5.02 µM | M14 7.05 µM | NCI-H226 20.2 µM | OVCAR-4 14 µM | OVCAR-5 36.9 µM | SF-539 19 µM | SK-OV-3 25.9 µM | SNB-19 33.5 µM | SR 10 µM | U-251 12.1 µM | UO-31 26.2 µM

COc1cc2c(cc1OC)C(C(=O)c1cccc(OC)c1OC)C(=O)N(C)CC2 (stereo not drawn)
inactive: A498 > 100 µM | COLO 205 > 100 µM | HL-60 > 100 µM | M14 > 100 µM | NCI-H226 > 100 µM | OVCAR-4 > 100 µM | SK-OV-3 > 100 µM | SNB-19 > 100 µM | U-251 > 100 µM | UO-31 > 100 µM

O=C1CC2CCN(C(=O)c3ccccc3)CC2CCN1 (stereo not drawn)
inactive: A498 > 100 µM | COLO 205 > 100 µM | EKVX > 100 µM | HCC 2998 > 100 µM | HL-60 > 100 µM | M14 > 100 µM | NCI-H226 > 100 µM | OVCAR-4 > 100 µM | OVCAR-5 > 100 µM | SF-539 > 100 µM | SK-OV-3 > 100 µM | SNB-19 > 100 µM | SR > 100 µM | U-251 > 100 µM | UO-31 > 100 µM

C/C(=C\CNc1ncnc2c1ncn2C1CCCCO1)COP(=O)(O)O (stereo not drawn)
inactive: COLO 205 > 100 µM | EKVX > 100 µM | HCC 2998 > 100 µM | HL-60 > 100 µM | M14 > 100 µM | NCI-H226 > 100 µM | OVCAR-4 > 100 µM | OVCAR-5 > 100 µM | SF-539 > 100 µM | SK-OV-3 > 100 µM | SNB-19 > 100 µM | SR > 100 µM | U-251 > 100 µM | UO-31 > 100 µM

O=C(NC12CC3CCC1CC(C3)C2)[C@@H]1CCCN1C(=O)OCc1ccccc1 (stereo partly drawn)
inactive: A498 27.9 µM | COLO 205 33.5 µM | EKVX 69.5 µM | HCC 2998 85.9 µM | HL-60 25.8 µM | M14 85.9 µM | NCI-H226 58.9 µM | OVCAR-5 > 100 µM | SF-539 > 100 µM | SK-OV-3 65.3 µM | SNB-19 50.9 µM | SR 34.4 µM | U-251 42.4 µM | UO-31 24 µM

COc1ccc(OCC(=O)O)c2c1CCCC2=O
inactive: A498 > 100 µM | COLO 205 > 100 µM | EKVX > 100 µM | HCC 2998 > 100 µM | HL-60 > 100 µM | M14 > 100 µM | NCI-H226 64.6 µM | OVCAR-4 > 100 µM | OVCAR-5 > 100 µM | SF-539 > 100 µM | SK-OV-3 > 100 µM | SNB-19 > 100 µM | SR > 100 µM | U-251 > 100 µM | UO-31 > 100 µM

COC(=O)C12C3C4C5C3(C#N)C1C5(C(=O)OC)C42C(=O)N(C(C)C)C(C)C (stereo not drawn)
inactive: A498 > 100 µM | COLO 205 > 60.4 µM | EKVX > 100 µM | HCC 2998 > 96.6 µM | HL-60 > 43.7 µM | M14 > 100 µM | NCI-H226 > 100 µM | OVCAR-4 > 100 µM | OVCAR-5 > 100 µM | SF-539 > 100 µM | SK-OV-3 > 100 µM | SNB-19 > 100 µM | SR 13.9 µM | U-251 > 78 µM | UO-31 > 100 µM

CSc1nc(NC2OC(COC(C)=O)C(OC(C)=O)C(OC(C)=O)C2OC(C)=O)c(-c2csc(N)n2)c(=O)n1C (stereo not drawn)
inactive: A498 > 100 µM | COLO 205 > 100 µM | HL-60 > 100 µM | M14 39.1 µM | NCI-H226 15.7 µM | OVCAR-4 21.8 µM | OVCAR-5 > 100 µM | SF-539 25.2 µM | SK-OV-3 50.7 µM | SNB-19 56.6 µM | SR > 100 µM | U-251 34.3 µM | UO-31 24.6 µM

CN(C)C(=S)/N=c1\ss/c(=N\C(=S)N(C)C)n1-c1ccc(Cl)c(Cl)c1
inactive: A498 > 100 µM | COLO 205 > 100 µM | EKVX > 100 µM | HCC 2998 > 100 µM | HL-60 > 100 µM | M14 > 100 µM | NCI-H226 > 100 µM | OVCAR-4 > 100 µM | OVCAR-5 > 100 µM | SF-539 > 100 µM | SK-OV-3 > 100 µM | SNB-19 > 100 µM | SR > 100 µM | U-251 > 100 µM | UO-31 > 100 µM

COC(=O)C(=O)C(C#N)c1cccc2ccccc12 (stereo not drawn)
inactive: A498 > 100 µM | COLO 205 > 100 µM | EKVX > 100 µM | HCC 2998 > 100 µM | HL-60 > 100 µM | M14 > 100 µM | NCI-H226 > 100 µM | OVCAR-4 > 100 µM | OVCAR-5 > 100 µM | SF-539 > 100 µM | SK-OV-3 > 100 µM | SNB-19 > 100 µM | SR > 100 µM | U-251 > 100 µM | UO-31 > 100 µM

COc1cc2c(c(OC)c1)C1(CC(CC#N)C2)SCCS1 (stereo not drawn)
inactive: A498 > 100 µM | COLO 205 > 100 µM | HCC 2998 > 100 µM | HL-60 > 100 µM | M14 > 100 µM | NCI-H226 > 100 µM | OVCAR-4 > 100 µM | SF-539 > 100 µM | SK-OV-3 > 100 µM | SNB-19 > 100 µM | U-251 > 100 µM | UO-31 > 100 µM

CC(=O)NC(Cc1ccccc1)C(=S)N1CCCC1 (stereo not drawn)
inactive: A498 > 100 µM | COLO 205 > 100 µM | EKVX > 100 µM | HCC 2998 > 100 µM | HL-60 > 100 µM | M14 > 100 µM | NCI-H226 > 100 µM | OVCAR-4 > 100 µM | OVCAR-5 > 100 µM | SF-539 > 100 µM | SK-OV-3 > 100 µM | SNB-19 > 100 µM | U-251 > 100 µM | UO-31 > 100 µM

CC(O)C(N/C=C1/N=C(c2ccccc2)OC1=O)C(=O)O (stereo not drawn)
inactive: A498 > 100 µM | COLO 205 > 100 µM | EKVX > 100 µM | HCC 2998 > 100 µM | HL-60 10 µM | M14 > 100 µM | NCI-H226 > 100 µM | OVCAR-4 > 100 µM | OVCAR-5 > 100 µM | SF-539 > 100 µM | SK-OV-3 > 100 µM | SNB-19 > 100 µM | U-251 > 100 µM | UO-31 > 100 µM

O=C(c1ccccn1)c1nc(-c2ccc(Cl)c(Cl)c2)nc2ccc(Cl)cc12
inactive: A498 45.1 µM | EKVX 74.5 µM | HCC 2998 > 100 µM | HL-60 > 100 µM | M14 > 100 µM | NCI-H226 23.1 µM | OVCAR-4 40.2 µM | OVCAR-5 > 100 µM | SF-539 18.1 µM | SK-OV-3 36.4 µM | U-251 44.1 µM | UO-31 56.9 µM

ONc1ncnc2[nH]cnc12
inactive: COLO 205 > 100 µM | HCC 2998 > 100 µM | HL-60 14.7 µM | M14 > 100 µM | NCI-H226 > 100 µM | OVCAR-4 > 100 µM | OVCAR-5 > 100 µM | SF-539 > 100 µM | SNB-19 > 100 µM | SR > 100 µM | U-251 > 100 µM | UO-31 > 100 µM

Cc1c2ccncc2c(C)c2c1[nH]c1ccc(Cl)cc12
inactive: A498 4.46 µM | COLO 205 2.16 µM | EKVX 4.84 µM | HCC 2998 7.76 µM | HL-60 2.11 µM | M14 4.57 µM | MCF7 2.17 µM | NCI-H226 3.17 µM | OVCAR-4 2.11 µM | OVCAR-5 7.05 µM | SF-539 2.44 µM | SK-OV-3 7.19 µM | SNB-19 2.35 µM | U-251 5.13 µM | UO-31 3.56 µM

COc1ccc(C2CC(=O)c3c(O)cc(O)cc3O2)cc1O (stereo not drawn)
inactive: A498 > 100 µM | COLO 205 > 100 µM | EKVX > 100 µM | HCC 2998 > 100 µM | HL-60 > 100 µM | M14 > 100 µM | NCI-H226 > 100 µM | OVCAR-4 65.2 µM | OVCAR-5 > 100 µM | SF-539 > 100 µM | SK-OV-3 > 100 µM | SNB-19 > 100 µM | U-251 > 100 µM | UO-31 58.7 µM

Reference: ChEMBL document CHEMBL1201862, “PubChem BioAssay data set” (2004)
